Measured values: publication PMC4924682, “Monoamine oxidase A (MAO A) inhibitors decrease glioma progression” (Oncotarget, 2016)

Legend:
[1] = biological target: T1, Monoamine Oxidase A (MAO A) (Mus musculus, UniProt Q64133); assay: radioassay of […]-5-HT turnover in GL26 mouse glioma cells; format: cell-based
T1 construct: gene Maoa
T1 sequence (Q64133 1-526): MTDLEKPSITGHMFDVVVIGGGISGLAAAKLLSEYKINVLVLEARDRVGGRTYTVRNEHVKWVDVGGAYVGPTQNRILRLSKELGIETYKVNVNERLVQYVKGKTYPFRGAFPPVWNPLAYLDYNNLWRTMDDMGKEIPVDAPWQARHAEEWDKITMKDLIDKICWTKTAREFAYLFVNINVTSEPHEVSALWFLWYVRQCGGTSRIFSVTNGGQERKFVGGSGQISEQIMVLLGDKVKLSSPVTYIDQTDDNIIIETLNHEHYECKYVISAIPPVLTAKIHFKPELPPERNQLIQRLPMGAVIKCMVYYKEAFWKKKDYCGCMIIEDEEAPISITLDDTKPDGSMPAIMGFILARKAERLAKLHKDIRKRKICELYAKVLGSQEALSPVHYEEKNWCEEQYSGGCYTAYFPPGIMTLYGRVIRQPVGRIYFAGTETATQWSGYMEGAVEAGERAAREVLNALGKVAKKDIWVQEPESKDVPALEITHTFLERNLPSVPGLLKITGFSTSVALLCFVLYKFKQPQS

[2] = biological target: T2, Monoamine Oxidase A (MAO A) (Homo sapiens, UniProt P21397); assay: radioassay of […]-5-HT turnover in U251S and U251R human glioma cells; format: cell-based
T2 construct: gene MAOA
T2 sequence (P21397 1-527): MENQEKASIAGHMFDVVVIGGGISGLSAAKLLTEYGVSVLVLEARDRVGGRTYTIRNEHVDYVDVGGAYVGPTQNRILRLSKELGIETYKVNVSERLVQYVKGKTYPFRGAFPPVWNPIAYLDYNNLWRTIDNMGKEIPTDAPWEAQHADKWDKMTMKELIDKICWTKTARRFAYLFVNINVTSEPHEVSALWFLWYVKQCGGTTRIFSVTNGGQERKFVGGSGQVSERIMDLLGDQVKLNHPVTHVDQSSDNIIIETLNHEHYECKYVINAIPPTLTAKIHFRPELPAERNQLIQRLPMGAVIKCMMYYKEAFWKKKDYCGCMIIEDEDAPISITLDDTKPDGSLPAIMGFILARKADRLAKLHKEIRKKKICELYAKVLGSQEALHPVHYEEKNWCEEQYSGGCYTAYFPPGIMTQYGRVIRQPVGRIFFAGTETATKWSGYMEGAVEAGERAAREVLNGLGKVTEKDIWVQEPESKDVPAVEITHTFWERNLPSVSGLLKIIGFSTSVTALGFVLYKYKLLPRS

For NCCc1c[nH]c2ccc(O)cc12 [serotonin], the “radioassay of 14C-5-HT turnover in GL26 mouse glioma cells” value [1] was “MAO A catalytic activity was determined in human and mouse glioma cell lines using serotonin as the substrate” and the “radioassay of 14C-5-HT turnover in U251S and U251R human glioma cells” value [2] was “MAO A catalytic activity was determined in human and mouse glioma cell lines using serotonin as the substrate”.
